# Reference: patent US6525026B2, “Carbamyloxy compounds which inhibit leukocyte adhesion mediated by VLA-4” (Elan Pharmaceuticals, Inc., priority 1997, dated 2003)
# Numbered stars: 1 amine (or outer) side, 2 acyl side, 3 side chain; on linkers, the order of the positions; unused ones are H or OH. Side chains are listed from the residue outwards. Peptide text beside a SMILES is read from it. * marks the point of attachment. Tos = Cc1ccc(S(=O)(=O)*)cc1; CO = O=C([*:1])[*:2]; OiPr = CC(C)O*
# System: rats or guinea pigs
# Test: Experimental Autoimmune (or Allergic) Encephalomyelitis (EAE) model, motor impairment
# Type: in vivo
# Details: treatment from Day 8, 10 mg/kg to 200 mg/kg bid for five days, SC, PO or IP
row,Structure (SMILES),"active in EAE in vivo assay (delayed the onset of symptoms, e.g., clinical scores no greater than 2 or slowed body weight loss as compared to the control)"
1,"Cc1ccc(S(=O)(=O)N2CCC[C@H]2C(=O)N[C@@H](Cc2ccc(OC(=O)N3CCN(C)CC3)cc2)C(=O)OC(C)(C)C)cc1 [Example 4, N-(Toluene-4-sulfonyl)-L-prolyl-L-4-(4-methylpiperazin-1-ylcarbonyloxy)phenylalanine tert-Butyl Ester]",active
2,"Cc1ccc(S(=O)(=O)N2CSC(C)(C)[C@H]2C(=O)N[C@@H](Cc2ccc(OC(=O)N3CCN(C)CC3)cc2)C(=O)OC(C)(C)C)cc1 [Example 16, N-(Toluene-4-sulfonyl)-L-(5,5-dimethyl)thiaprolyl-L-4-(4-methylpiperazin-1-ylcarbonyloxy)phenylalanine tert-Butyl Ester]",active
3,"Cc1ccc(S(=O)(=O)N2CS(=O)(=O)C(C)(C)[C@H]2C(=O)N[C@@H](Cc2ccc(OC(=O)N(C)C)cc2)C(=O)OC(C)C)cc1 [Example 75, N-(Toluene-4-sulfonyl)-L-(1,1-dioxo-5,5-dimethyl)thiaprolyl-L-4-(N,N-dimethylcarbamyloxy)phenylalanine Isopropyl Ester]",active
4,"Cc1ccc(S(=O)(=O)N2CSC(C)(C)[C@H]2C(=O)N[C@@H](Cc2ccc(OC(=O)N(C)C)cc2)C(=O)OC(C)(C)C)cc1 [Example 12, N-(Toluene-4-sulfonyl)-L-(5,5-dimethyl)thiaprolyl-L-4-(N,N-dimethylcarbamyloxy)phenylalanine tert-Butyl Ester]",active
5,"Cc1ccc(S(=O)(=O)N2CCC[C@H]2C(=O)N[C@@H](Cc2ccc(OC(=O)N(C)C)cc2)C(=O)O)cc1 [Example 9, N-(Toluene-4-sulfonyl)-L-prolyl-L-4-(N,N-dimethylcarbamyloxy)phenylalanine] (Tos-Pro-Tyr([CO-NMe2])-OH)",active
6,"CC(C)OC(=O)[C@H](Cc1ccc(OC(=O)N(C)C)cc1)NC(=O)[C@@H]1CCCN1S(=O)(=O)c1cnn(C)c1 [Example 137, N-(Methyl-pyrazole-4-sulfonyl)-L-prolyl-L-(4-N,N-dimethylcarbamyloxy)-phenylalanine Isopropyl Ester]",active
7,"Cc1ccc(S(=O)(=O)N2CCC[C@H]2C(=O)N[C@@H](Cc2ccc(OC(=O)N(C)C)cc2)C(=O)OC(C)C)cc1 [Example 101, N-(Toluene-4-sulfonyl)-L-prolyl-L-4-(N,N-dimethylcarbamyloxy)-L-phenylalanine Isopropyl Ester] (Tos-Pro-Tyr([CO-NMe2])-OiPr)",active
8,"Cc1ccc(S(=O)(=O)N2CSC(C)(C)[C@H]2C(=O)N[C@@H](Cc2ccc(OC(=O)N(C)C)cc2)C(=O)OC(C)C)cc1 [Example 11, N-(Toluene-4-sulfonyl)-L-(5,5-dimethyl)thiaprolyl-L-4-(N,N-dimethylcarbamyloxy)phenylalanine Isopropyl Ester]",active
9,"CN(C)C(=O)Oc1ccc(C[C@H](NC(=O)[C@H]2N(S(=O)(=O)c3ccc(F)cc3)CSC2(C)C)C(=O)OC(C)(C)C)cc1 [Example 95, N-(4-Fluorobenzenesulfonyl)-L-(5,5-dimethyl)thiaprolyl-L-4-(N,N-dimethylcarbamyloxy)phenylalanine tert-Butyl Ester]",active
10,"Cc1ccc(S(=O)(=O)N2CCS(=O)(=O)C[C@@H]2C(=O)N[C@@H](Cc2ccc(OC(=O)N(C)C)cc2)C(=O)OC(C)(C)C)cc1 [Example 51, N-(Toluene-4-sulfonyl)-L-(1,1-dioxothiamorpholin-3-carbonyl)-L-4-(N,N-dimethylcarbamyloxy)phenylalanine tert-Butyl Ester]",active
11,"CN(C)C(=O)Oc1ccc(C[C@H](NC(=O)[C@@H]2CCCN2S(=O)(=O)c2cnn(C)c2)C(=O)OC(C)(C)C)cc1 [Example 117, N-(Methyl-pyrazole-4-sulfonyl)-L-prolyl-L-(4-N,N-dimethylcarbamyloxy)phenylalanine tert-Butyl Ester]",active
12,"Cc1ccc(S(=O)(=O)N2CCC[C@H]2C(=O)N[C@@H](Cc2ccc(OC(=O)N3CCSCC3)cc2)C(=O)OC(C)(C)C)cc1 [Example 82, N-(Toluene-4-sulfonyl)-L-prolyl-L-4-(thiomorpholin-4-ylcarbonyloxy)phenylalanine tert-Butyl Ester]",active
13,"Cc1ccc(S(=O)(=O)N2CCS(=O)(=O)C[C@@H]2C(=O)N[C@@H](Cc2ccc(OC(=O)N(C)C)cc2)C(=O)OC(C)C)cc1 [Example 73, N-(Toluene-4-sulfonyl)-L-(1,1-dioxothiamorpholin-3-carbonyl)-L-4-(N,N-dimethylcarbamyloxy)phenylalanine Isopropyl Ester]",active

# System: not given
# Test: not given
# Details: not given
row,Structure (SMILES),melting point
1,Cc1ccc(S(=O)(=O)N2CCC[C@H]2C(=O)N[C@@H](Cc2ccc(OC(=O)N3CCN(CCO)CC3)cc2)C(=O)OC(C)(C)C)cc1,158 to 160 °C
